Measured values published in ChEMBL document CHEMBL1147195, “Synthesis and activity of quinolinyl-methylene-thiazolinones as potent and selective cyclin-dependent kinase 1 inhibitors” (Bioorg Med Chem Lett, 2007).

Experiments:
[1] = Inhibition of CDK1/cyclinB; design: species or system Homo sapiens
[2] = biological target: Cyclin-dependent kinase 4 (Homo sapiens, UniProt P11802); test: Inhibition of CDK4
SJSA-1 = test: Antiproliferative activity against human SJSA1 cells; format: functional, cell-based
[3] = biological target: Tyrosine-protein kinase Fyn (Homo sapiens, UniProt P06241); test: Inhibition of FYN
Sequence of Tyrosine-protein kinase Fyn (P06241 whole entry): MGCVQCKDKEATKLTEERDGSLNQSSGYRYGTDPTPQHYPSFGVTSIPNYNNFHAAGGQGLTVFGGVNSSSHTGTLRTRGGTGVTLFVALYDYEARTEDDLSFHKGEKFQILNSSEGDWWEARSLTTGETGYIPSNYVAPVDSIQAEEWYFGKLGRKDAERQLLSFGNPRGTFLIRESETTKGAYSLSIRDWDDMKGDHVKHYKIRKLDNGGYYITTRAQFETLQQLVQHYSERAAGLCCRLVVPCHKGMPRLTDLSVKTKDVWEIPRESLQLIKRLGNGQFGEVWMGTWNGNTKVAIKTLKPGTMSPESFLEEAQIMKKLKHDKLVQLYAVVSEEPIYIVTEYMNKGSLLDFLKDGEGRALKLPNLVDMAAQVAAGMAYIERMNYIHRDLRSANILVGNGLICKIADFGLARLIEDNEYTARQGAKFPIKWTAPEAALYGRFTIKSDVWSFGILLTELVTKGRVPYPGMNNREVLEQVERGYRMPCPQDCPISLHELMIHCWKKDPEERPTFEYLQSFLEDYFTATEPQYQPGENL

[4] = biological target: Mitogen-activated protein kinase 1 (Homo sapiens, UniProt P28482); test: Inhibition of ERK
Sequence of Mitogen-activated protein kinase 1 (P28482 whole entry): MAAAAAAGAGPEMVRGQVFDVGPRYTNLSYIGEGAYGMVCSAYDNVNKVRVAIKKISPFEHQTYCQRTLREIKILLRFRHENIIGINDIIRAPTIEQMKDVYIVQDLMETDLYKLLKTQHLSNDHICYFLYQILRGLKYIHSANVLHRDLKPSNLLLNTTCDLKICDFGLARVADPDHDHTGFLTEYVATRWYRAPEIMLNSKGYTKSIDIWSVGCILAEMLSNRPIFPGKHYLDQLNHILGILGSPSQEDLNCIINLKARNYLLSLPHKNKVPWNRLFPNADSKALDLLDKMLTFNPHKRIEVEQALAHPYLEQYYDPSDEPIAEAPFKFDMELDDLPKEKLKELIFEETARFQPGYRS

[5] = biological target: Serine/threonine-protein kinase AKT (Homo sapiens, UniProt P31751+Q9Y243+P31749); test: Inhibition of AKT; format: protein assay
[6] = biological target: Cyclin-dependent kinase 2 (Homo sapiens, UniProt P24941); test: Inhibition of CDK2
[7] = biological target: Glycogen synthase kinase-3 (Homo sapiens, UniProt P49840+P49841); test: Inhibition of GSKp1; format: protein assay
[8] = biological target: Protein kinase C alpha type (Homo sapiens, UniProt P17252); test: Inhibition of PKCa
[9] = biological target: Protein kinase C delta type (Homo sapiens, UniProt Q05655); test: Inhibition of PKCd
Sequence of Protein kinase C delta type (Q05655 whole entry): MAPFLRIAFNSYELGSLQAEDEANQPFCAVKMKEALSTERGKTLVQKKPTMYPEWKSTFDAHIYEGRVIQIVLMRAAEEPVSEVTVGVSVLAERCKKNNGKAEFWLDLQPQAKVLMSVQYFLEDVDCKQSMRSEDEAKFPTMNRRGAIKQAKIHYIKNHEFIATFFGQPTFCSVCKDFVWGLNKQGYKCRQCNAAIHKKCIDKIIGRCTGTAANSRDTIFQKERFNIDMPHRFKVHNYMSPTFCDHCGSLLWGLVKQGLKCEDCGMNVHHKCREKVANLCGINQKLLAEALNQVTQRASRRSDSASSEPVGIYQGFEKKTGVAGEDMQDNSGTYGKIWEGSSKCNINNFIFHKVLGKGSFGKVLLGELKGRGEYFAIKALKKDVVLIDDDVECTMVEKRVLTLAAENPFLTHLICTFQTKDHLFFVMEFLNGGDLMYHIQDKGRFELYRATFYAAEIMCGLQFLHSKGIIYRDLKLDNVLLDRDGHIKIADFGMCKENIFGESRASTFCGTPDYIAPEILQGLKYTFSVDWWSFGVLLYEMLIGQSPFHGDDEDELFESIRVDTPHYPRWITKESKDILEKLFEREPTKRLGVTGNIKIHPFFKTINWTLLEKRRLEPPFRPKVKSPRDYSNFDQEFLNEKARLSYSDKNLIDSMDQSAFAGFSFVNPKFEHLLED

Ephrin type-B receptor 3 = biological target: T1, Ephrin type-B receptor 3 (Homo sapiens, UniProt P54753); test: Inhibition of EPHB3
T1 sequence (P54753 whole entry): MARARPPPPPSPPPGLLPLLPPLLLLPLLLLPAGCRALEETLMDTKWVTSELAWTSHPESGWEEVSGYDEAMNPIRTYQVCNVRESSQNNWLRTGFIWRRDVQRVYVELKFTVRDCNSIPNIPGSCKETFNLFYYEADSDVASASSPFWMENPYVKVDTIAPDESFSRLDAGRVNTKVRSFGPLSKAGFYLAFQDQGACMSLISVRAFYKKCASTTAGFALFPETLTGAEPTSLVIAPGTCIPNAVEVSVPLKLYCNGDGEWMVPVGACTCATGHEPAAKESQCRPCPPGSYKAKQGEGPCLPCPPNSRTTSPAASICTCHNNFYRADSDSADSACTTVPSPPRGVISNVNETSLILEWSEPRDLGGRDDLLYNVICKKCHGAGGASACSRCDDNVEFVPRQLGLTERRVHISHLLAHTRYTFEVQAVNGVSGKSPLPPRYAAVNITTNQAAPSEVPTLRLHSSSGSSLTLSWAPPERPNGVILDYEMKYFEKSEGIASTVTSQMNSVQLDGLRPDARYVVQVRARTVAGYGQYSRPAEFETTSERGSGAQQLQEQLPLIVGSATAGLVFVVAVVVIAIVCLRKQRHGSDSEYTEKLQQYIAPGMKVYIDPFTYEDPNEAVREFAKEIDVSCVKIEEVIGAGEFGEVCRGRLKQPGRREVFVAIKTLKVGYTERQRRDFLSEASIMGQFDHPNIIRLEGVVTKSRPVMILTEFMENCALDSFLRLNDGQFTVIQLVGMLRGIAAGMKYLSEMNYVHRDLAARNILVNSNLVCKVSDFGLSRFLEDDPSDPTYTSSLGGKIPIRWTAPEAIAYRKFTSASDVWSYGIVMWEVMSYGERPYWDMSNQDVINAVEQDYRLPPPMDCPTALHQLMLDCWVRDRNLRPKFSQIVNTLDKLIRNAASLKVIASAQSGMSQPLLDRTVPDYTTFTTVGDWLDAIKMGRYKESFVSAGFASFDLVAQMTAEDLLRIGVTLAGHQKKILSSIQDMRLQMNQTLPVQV

[10] = biological target: Ribosomal protein S6 kinase alpha-3 (Homo sapiens, UniProt P51812)
Sequence of Ribosomal protein S6 kinase alpha-3 (P51812 whole entry): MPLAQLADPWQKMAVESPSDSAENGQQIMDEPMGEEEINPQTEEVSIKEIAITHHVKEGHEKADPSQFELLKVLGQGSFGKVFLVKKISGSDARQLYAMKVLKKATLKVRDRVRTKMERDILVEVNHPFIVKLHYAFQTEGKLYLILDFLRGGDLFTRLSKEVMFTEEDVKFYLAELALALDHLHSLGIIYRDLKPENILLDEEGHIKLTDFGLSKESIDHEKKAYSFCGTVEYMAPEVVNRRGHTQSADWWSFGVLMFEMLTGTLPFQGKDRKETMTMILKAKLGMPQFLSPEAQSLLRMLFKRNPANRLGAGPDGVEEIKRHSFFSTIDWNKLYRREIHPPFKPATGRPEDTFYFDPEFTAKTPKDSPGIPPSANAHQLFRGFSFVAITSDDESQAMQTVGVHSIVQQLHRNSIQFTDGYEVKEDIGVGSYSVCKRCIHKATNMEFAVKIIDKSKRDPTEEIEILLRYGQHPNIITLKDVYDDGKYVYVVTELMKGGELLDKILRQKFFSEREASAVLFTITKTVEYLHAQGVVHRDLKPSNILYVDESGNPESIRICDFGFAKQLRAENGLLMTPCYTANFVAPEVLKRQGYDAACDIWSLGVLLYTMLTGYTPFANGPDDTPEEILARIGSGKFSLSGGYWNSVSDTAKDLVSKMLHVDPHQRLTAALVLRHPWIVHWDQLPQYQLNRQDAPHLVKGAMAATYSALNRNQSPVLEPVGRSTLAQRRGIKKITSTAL

Sequence of Cyclin-dependent kinase 4 (P11802 whole entry): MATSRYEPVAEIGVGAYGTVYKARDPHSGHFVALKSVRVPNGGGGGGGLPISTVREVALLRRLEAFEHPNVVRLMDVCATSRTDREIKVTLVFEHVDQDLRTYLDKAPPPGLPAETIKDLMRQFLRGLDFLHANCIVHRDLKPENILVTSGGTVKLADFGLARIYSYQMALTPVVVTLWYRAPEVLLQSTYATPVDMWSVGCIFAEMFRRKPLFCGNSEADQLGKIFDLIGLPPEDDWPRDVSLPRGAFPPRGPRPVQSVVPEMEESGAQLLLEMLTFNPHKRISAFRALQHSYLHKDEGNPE

SMILES	Ki [1]	further results
O=C1N=C(NCCc2ccc(Br)cc2)S/C1=C\c1ccc2ncccc2c1	640 nM	
COc1ccccc1CCNC1=NC(=O)/C(=C/c2ccc3ncccc3c2)S1	63 nM	
CNC1=NC(=O)/C(=C/c2ccc3ncccc3c2)S1	270 nM	
CCCCNC1=NC(=O)/C(=C/c2ccc3ncccc3c2)S1	310 nM	
O=C1N=C(NCc2ccccc2)S/C1=C\c1ccc2ncccc2c1	150 nM	
O=C1N=C(NCc2ccccn2)S/C1=C\c1ccc2ncccc2c1	310 nM	
CCOc1ccccc1CCNC1=NC(=O)/C(=C/c2ccc3ncccc3c2)S1	87 nM	
O=C1N=C(NCCc2cccc(Cl)c2)S/C1=C\c1ccc2ncccc2c1	130 nM	
CONC1=NC(=O)/C(=C/c2ccc3ncccc3c2)S1	> 2000 nM	
O=C1N=C(NCCc2cccc(F)c2)S/C1=C\c1ccc2ncccc2c1	60 nM	
O=C1N=C(NCCc2cccs2)S/C1=C\c1ccc2ncccc2c1	45 nM	
O=C1N=C(NCCc2ccc(F)cc2)S/C1=C\c1ccc2ncccc2c1	62 nM	
COc1ccccc1CNC1=NC(=O)/C(=C/c2ccc3ncccc3c2)S1	86 nM	
O=C1N=C(NCc2c(Cl)cccc2Cl)S/C1=C\c1ccc2ncccc2c1	1040 nM	
O=C1N=C(N[C@H](CO)Cc2ccccc2)S/C1=C\c1ccc2ncccc2c1	2000 nM	
O=C1N=C(N[C@H](CO)c2ccccc2)S/C1=C\c1ccc2ncccc2c1	580 nM	
COC[C@H](NC1=NC(=O)/C(=C/c2ccc3ncccc3c2)S1)c1ccccc1	> 2000 nM	
O=C1N=C(N[C@@H]2C[C@H]2c2ccccc2)S/C1=C\c1ccc2ncccc2c1	23 nM	Ki [2]: > 2000 nM; IC50 (SJSA-1): 1850 nM; Ki [3]: > 2000 nM; Ki [4]: 220 nM; Ki [5]: > 2000 nM; Ki [6]: > 2000 nM; Ki [7]: > 2000 nM; Ki [8]: > 2000 nM; Ki [9]: 480 nM; Ki (Ephrin type-B receptor 3): > 2000 nM; Ki [10]: > 2000 nM

SMILES	Ki [1]	further results
CN(Cc1cccs1)C1=NC(=O)/C(=C/c2ccc3ncccc3c2)S1	> 2000 nM	
O=C1N=C(NCCc2ccccc2Cl)S/C1=C\c1ccc2ncccc2c1	46 nM	
COc1ccc(CCNC2=NC(=O)/C(=C/c3ccc4ncccc4c3)S2)cc1	390 nM	
Cc1ccsc1CNC1=NC(=O)/C(=C/c2ccc3ncccc3c2)S1	89 nM	
O=C1N=C(NCc2ccccc2Br)S/C1=C\c1ccc2ncccc2c1	38 nM	
O=C1N=C(Nc2ccccc2)S/C1=C\c1ccc2ncccc2c1	> 2000 nM	
O=C1N=C(NCCCc2ccccc2)S/C1=C\c1ccc2ncccc2c1	240 nM	
O=C1N=C(N[C@@H](CO)Cc2ccccc2)S/C1=C\c1ccc2ncccc2c1	230 nM	IC50 (SJSA-1): 3240 nM
O=C1N=C(N[C@@H](CO)c2ccccc2)S/C1=C\c1ccc2ncccc2c1	350 nM	
O=C1N=C(NCC(CO)c2ccccc2)S/C1=C\c1ccc2ncccc2c1 (stereo not given)	390 nM	
O=C1N=C(NCc2cccs2)S/C1=C\c1ccc2ncccc2c1		IC50 (SJSA-1): 4550 nM; Ki [3]: > 2000 nM; Ki [4]: 2000 nM; Ki [5]: > 2000 nM; Ki [7]: 500 nM; Ki [8]: > 2000 nM; Ki [9]: 320 nM; Ki (Ephrin type-B receptor 3): > 2000 nM
O=C1N=C(NCCc2ccc(Cl)cc2)S/C1=C\c1ccc2ncccc2c1	410 nM	
O=C1N=C(NC2CC2)S/C1=C\c1ccc2ncccc2c1	270 nM	
NC1=NC(=O)/C(=C/c2ccc3ncccc3c2)S1	80 nM	Ki [2]: > 2000 nM; Ki [3]: > 2000 nM; Ki [4]: > 2000 nM; Ki [5]: > 2000 nM; Ki [6]: 2000 nM; Ki [7]: > 2000 nM; Ki [8]: > 2000 nM; Ki [9]: 1700 nM; Ki (Ephrin type-B receptor 3): > 2000 nM; Ki [10]: > 2000 nM
O=C1N=C(NCCc2ccccn2)S/C1=C\c1ccc2ncccc2c1	280 nM	
O=C1N=C(NCCc2ccccc2)S/C1=C\c1ccc2ncccc2c1	60 nM	
O=C1N=C(NCCc2ccccc2F)S/C1=C\c1ccc2ncccc2c1	120 nM	
O=C1N=C(NCc2ccccc2Cl)S/C1=C\c1ccc2ncccc2c1	52 nM	
